According to publication doi:10.1101/706168v1 (biorxiv, 2019):
pIC50: −log10 of the molar value.

Key:
Test in all cases: cell-based
EAG1 = target: T1, EAG1 (Homo sapiens, UniProt O95259)
T1 sequence (O95259 1-989): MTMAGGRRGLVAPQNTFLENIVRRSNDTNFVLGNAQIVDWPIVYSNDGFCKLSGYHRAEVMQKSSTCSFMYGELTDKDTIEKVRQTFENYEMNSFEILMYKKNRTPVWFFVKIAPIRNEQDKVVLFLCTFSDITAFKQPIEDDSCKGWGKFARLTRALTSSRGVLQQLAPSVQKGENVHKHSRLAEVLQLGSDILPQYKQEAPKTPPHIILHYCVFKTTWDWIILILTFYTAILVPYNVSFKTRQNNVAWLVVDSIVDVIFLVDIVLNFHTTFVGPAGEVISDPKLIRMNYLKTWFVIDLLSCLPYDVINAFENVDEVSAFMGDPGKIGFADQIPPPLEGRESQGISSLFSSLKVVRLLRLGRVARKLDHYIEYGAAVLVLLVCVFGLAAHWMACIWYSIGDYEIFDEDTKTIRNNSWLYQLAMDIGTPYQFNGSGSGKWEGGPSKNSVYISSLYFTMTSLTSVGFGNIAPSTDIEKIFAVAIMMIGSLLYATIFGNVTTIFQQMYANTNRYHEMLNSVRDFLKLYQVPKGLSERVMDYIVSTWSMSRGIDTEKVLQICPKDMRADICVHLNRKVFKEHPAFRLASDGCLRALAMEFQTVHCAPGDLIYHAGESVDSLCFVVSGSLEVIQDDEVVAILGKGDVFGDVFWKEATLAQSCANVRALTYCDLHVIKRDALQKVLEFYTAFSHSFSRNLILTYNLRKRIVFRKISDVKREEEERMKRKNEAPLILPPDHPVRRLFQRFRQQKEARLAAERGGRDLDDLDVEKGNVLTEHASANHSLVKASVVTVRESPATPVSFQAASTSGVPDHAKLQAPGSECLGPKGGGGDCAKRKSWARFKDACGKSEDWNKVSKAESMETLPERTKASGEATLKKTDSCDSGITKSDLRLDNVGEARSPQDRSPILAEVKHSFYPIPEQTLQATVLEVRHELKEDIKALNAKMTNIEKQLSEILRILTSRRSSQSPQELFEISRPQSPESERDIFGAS

Kir3.1/3.4 = target: T2, Kir3.1/3.4 (Homo sapiens, UniProt P48544+P48549)
T2 sequence (P48544 1-419): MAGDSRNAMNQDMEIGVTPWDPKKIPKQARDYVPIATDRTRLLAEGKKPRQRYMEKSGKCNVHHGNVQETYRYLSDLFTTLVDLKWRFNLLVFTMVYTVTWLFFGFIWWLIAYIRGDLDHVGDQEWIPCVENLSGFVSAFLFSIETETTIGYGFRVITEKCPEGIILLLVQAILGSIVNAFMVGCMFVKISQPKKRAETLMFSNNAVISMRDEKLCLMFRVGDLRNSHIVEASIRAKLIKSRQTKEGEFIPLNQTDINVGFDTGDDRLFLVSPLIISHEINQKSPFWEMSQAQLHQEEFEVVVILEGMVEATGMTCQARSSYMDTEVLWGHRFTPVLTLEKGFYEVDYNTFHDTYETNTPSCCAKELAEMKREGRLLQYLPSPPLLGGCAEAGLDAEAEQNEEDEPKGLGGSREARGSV
T2 sequence (P48549 1-501): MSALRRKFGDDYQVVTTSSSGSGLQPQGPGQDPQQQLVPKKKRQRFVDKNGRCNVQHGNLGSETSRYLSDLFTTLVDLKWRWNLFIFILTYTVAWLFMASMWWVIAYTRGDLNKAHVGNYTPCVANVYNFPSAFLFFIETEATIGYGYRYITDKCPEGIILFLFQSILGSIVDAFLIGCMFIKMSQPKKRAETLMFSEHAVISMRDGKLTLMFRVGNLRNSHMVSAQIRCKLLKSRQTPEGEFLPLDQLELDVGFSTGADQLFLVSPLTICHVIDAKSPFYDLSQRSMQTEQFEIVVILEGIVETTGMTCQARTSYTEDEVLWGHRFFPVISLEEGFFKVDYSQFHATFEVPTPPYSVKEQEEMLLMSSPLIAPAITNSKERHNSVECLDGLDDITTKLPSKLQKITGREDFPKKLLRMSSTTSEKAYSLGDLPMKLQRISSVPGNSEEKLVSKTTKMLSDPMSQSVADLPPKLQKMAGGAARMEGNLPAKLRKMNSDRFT

TWIK2 = target: T3, TWIK2 (Homo sapiens, UniProt Q9Y257)
T3 sequence (Q9Y257 1-313): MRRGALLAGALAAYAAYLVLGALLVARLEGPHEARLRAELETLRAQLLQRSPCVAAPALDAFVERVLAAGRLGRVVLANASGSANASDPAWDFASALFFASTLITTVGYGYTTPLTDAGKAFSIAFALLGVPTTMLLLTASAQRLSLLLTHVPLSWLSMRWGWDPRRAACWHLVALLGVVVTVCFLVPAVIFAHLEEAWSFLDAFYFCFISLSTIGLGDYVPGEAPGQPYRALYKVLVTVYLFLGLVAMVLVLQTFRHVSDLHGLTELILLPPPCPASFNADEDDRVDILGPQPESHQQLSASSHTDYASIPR

TRPV4 = TRPV4 (Homo sapiens, UniProt Q9HBA0)
TRPV4, sequence (Q9HBA0 whole entry): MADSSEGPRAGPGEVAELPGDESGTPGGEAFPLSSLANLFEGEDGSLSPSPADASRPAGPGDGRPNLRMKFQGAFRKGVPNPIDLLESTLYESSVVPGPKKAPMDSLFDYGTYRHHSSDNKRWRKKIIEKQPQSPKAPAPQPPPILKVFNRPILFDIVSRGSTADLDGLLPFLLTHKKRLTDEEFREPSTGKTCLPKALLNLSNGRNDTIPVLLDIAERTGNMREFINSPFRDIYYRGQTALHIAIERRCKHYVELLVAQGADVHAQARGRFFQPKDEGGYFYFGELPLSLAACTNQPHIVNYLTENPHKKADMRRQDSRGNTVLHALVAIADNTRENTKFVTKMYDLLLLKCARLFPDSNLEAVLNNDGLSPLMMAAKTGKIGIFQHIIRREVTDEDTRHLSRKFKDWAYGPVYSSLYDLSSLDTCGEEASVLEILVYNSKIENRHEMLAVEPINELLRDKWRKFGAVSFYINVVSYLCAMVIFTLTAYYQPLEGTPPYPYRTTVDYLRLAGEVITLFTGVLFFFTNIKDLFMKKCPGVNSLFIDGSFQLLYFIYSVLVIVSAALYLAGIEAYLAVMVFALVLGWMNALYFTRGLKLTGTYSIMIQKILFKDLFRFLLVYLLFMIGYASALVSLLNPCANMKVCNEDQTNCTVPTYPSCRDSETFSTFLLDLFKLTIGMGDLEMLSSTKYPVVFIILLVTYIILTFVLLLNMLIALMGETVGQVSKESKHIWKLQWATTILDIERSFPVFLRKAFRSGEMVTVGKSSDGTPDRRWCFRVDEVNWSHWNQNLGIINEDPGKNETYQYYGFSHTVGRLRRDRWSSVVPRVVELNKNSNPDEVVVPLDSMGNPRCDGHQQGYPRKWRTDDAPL

hERG = hERG (Homo sapiens, UniProt Q12809)
hERG, sequence (Q12809 whole entry): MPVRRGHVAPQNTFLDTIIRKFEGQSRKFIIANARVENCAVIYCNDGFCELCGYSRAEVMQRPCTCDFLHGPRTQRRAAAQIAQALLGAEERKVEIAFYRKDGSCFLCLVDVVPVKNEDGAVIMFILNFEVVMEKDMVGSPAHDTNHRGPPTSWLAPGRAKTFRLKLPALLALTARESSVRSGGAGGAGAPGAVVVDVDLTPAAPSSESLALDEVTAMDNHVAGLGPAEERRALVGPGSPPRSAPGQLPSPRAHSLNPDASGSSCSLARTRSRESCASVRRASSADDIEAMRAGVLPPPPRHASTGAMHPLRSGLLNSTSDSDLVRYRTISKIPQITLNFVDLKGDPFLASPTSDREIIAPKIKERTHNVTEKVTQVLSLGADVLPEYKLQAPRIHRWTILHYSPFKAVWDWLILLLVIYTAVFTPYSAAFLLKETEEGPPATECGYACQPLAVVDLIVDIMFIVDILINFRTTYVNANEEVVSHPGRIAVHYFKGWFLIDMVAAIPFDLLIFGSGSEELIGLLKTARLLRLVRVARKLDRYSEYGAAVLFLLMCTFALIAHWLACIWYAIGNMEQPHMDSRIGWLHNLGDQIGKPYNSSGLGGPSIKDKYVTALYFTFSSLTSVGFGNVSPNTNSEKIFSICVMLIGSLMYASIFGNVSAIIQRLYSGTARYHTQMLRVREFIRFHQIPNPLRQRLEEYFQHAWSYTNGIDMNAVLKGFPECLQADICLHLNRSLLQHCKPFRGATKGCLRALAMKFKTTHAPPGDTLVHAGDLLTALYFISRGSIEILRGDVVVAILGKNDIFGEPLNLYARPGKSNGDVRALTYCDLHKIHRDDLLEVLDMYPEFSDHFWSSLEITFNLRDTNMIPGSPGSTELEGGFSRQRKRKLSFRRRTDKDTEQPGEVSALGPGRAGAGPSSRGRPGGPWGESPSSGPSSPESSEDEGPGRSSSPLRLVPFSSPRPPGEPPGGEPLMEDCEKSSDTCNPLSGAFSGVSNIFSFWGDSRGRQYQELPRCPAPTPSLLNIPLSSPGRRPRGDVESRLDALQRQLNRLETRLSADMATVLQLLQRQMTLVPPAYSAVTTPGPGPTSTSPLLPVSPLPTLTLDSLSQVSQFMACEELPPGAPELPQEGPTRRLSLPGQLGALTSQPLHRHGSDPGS

KCNQ1 = KCNQ1 (Homo sapiens, UniProt P51787)
KCNQ1, sequence (P51787 whole entry): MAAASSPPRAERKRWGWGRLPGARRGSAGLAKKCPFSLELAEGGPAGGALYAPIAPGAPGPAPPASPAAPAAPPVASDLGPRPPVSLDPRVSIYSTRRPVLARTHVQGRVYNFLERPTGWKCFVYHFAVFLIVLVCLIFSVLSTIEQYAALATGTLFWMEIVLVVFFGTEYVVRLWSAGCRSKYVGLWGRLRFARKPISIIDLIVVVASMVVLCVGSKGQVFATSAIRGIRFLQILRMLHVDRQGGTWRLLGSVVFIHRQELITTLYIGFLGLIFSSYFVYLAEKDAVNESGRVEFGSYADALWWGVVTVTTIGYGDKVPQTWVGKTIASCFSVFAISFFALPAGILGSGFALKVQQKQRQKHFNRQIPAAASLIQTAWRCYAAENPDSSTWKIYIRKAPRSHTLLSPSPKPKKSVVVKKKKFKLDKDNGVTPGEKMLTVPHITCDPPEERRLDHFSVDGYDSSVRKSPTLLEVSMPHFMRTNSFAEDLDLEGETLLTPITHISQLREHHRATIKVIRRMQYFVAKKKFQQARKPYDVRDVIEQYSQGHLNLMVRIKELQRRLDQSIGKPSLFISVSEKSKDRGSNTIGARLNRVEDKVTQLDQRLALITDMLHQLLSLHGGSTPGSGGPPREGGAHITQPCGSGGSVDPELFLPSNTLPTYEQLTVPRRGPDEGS

pIC50 (EAG1): < 4.52
pIC50 (Kir3.1/3.4): < 4.52
pIC50 (TWIK2): < 4.52
pIC50 (TRPV4): < 4.52
pIC50 (KCNQ1): < 4.52
SMILES: O=C(c1ccccc1F)N1CCN(Cc2c(-c3ccc(Br)cc3)nc3ccccn23)CC1 [BAY 1000493, (4-{[2-(4-bromophenyl)imidazo[1,2-a]pyridin-3-yl]methyl}vpiperazin-1-yl)(2-fluorophenyl)methanone]
pIC50 (hERG): 5.62
